Data on 2 compounds can be found in publication PMC5302078 (Journal of Biomolecular Screening, 2016).

The target of the test is T1, breast cancer resistance protein (BCRP) (Homo sapiens, UniProt Q9UNQ0).
T1 sequence (Q9UNQ0 1-655): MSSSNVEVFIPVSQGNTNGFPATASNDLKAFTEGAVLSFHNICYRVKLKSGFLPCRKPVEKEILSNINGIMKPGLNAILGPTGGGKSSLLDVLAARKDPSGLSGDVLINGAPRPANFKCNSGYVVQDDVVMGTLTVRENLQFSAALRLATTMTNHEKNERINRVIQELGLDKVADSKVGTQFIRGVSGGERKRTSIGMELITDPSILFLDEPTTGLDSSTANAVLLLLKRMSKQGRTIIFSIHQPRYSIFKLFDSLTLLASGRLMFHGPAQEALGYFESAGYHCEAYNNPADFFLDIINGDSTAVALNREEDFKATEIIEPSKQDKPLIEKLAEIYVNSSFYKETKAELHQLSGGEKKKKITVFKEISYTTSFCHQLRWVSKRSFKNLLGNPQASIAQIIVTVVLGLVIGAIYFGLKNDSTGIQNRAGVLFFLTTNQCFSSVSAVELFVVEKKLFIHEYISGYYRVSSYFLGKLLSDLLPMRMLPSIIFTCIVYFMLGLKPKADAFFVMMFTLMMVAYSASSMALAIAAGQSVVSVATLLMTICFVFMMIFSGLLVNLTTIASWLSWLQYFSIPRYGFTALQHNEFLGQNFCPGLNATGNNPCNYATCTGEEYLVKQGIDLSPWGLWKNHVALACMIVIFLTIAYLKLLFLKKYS
Kind of test: mitoxantrone accumulation in BCRP-overexpressing PLB985 cells, flow cytometry. In kind it is cell-based. A general note: A flow cytometer gives signals particle by particle.

Structures are written as SMILES.

The compound `COc1cc(N)c(Cl)cc1C(=O)NC1CCN(CCCOc2ccc(F)cc2)CC1OC` (centres unmarked) [cisapride] had an IC50 of 400 ± 100 nM. In the case of `O=C(Nc1c(Cl)cncc1Cl)c1ccc(OC(F)F)c(OCC2CC2)c1` [roflumilast], 900 ± 200 nM corresponded to half-maximal inhibition (IC50).

In general, IC50 refers to the midpoint of a concentration-inhibition curve. Read a low IC50 as higher potency.
